Molecular target: T1, wild-type caspase-1 (Homo sapiens, UniProt P29466)
T1 construct: single site alanine mutants for each of these residues in either the p10 or p20 subunit; made in house; E. coli is printed only for caspase-4/-5 made by the caspase-1 procedure
T1 sequence (P29466 120-297 limits assumed): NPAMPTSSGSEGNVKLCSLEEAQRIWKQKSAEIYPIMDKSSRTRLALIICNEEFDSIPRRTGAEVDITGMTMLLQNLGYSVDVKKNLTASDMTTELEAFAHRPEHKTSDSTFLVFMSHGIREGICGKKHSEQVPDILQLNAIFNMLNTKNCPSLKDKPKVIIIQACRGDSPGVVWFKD
T1 sequence (P29466 317-404 limits assumed): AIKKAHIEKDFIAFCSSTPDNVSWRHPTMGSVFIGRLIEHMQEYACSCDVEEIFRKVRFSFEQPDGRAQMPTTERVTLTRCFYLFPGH
Test: Titration of wild-type caspase-1 with z-VAD-FMK
Type: biochemical
Text: To test this, wild-type caspase-1 was titrated with inhibitor and found to produce a 2-fold activation when one reaches 0.2 equivalents of z-VAD-FMK. […] If the inhibitor labeled in a non-cooperative fashion we would expect that it would reach an optimum upon addition of about 0.5 equivalents and would cause a […] activation as half of the sites are inactivated. The fact this maxima is below 0.5 equivalents and is less than […] probably reflects that labeling is cooperative too. […] Thus, we have developed a second assay for evaluating the active site coupling.

Substance: z-VAD-FMK
- activation of wild-type caspase-1 (0.2 equivalents of inhibitor): 2 fold
- inhibition of wild-type caspase-1 (approaching one equivalent of inhibitor): complete inhibition
